Results on five compounds are retold here after publication PMC4676410 (Journal of medicinal chemistry, 2015).

Read-outs that look alike come from different tables or passages of the source.

One test concerns HIV-1ADA. Description: CD4-dependent CCR5-tropic HIV-1 cell-cell transmission assay. It counts as cell-based. The following applies: Ghost X4/R5 and MOLT-4/HIV-1ADA.
In test [1] the test system is lab-adapted and primary HIV-1 isolates. Description: microbe, parasite or virus in culture. It counts as cell-based. The following applies: Human immunodeficiency virus 1, PBMC, laboratory strain BaL, subtype B, R5.
In another test the test system is HIV-1IIIB. Put plainly: CD4-dependent CXCR4-tropic HIV-1 cell-cell transmission assay. It counts as cell-based. The following applies: Ghost X4/R5 and H9/HIV-1IIIB.
The next test has as its system SIVmac186. Put plainly: Antiviral activity against SIV. The following applies: Table S2. It counts as cell-based.
Test [2] concerns YU2 core gp120. Description: Competitive SPR: sCD4 binding to immobilized YU2 core gp120. Further details: species or system HIV-1. The following applies: NBD-11021 12.5-200 μM.
Test [3] deals with fusion between MAGI-CCR5 and HL 2/3 cells. Put plainly: HIV-1 cell-cell fusion assay. It counts as cell-based. The following applies: read-out: IC50, cell-cell fusion assay.
A further test relates to HIV-2 isolates. Description: Antiviral activity against HIV-2. It counts as cell-based. The following applies: Table S2.
The subject of test [4] is laboratory-adapted HIV-1 strains. Description: microbe, parasite or virus in culture. It counts as cell-based.
The subject of test [5] is HIV-1HXB2 (CXCR4-tropic) pseudovirus. Put plainly: Single-cycle infection assay in U87-CD4-CXCR4 cells. The following applies: U87-CD4-CXCR4, HIV-1HXB2.
In test [6] the test system is YU2 core gp120. Description: Competitive SPR: VRC-PG04 binding to immobilized YU2 core gp120. Further details: species or system HIV-1. The following applies: at higher ratios of NBD-11021 versus VRC-PG04.
In test [7] the test system is YU2 core gp120. Description: SPR: binding of YU2 core gp120 to captured mAb 17b in presence of compounds. Further details: species or system HIV-1. The following applies: sCD4 15-fold excess, compounds 50-fold excess.
The next test has as its system A-MLV. Description: microbe, parasite or virus in culture. It counts as cell-based. The following applies: Murine leukemia virus.
The subject of the next test is SHIVSF162P3. Description: Antiviral activity against SHIV. It counts as cell-based. The following applies: Table S2.
For test [8], the system named is HIV-1ADA (CCR5-tropic) pseudovirus. Description: Single-cycle infection assay in U87-CD4-CCR5 cells.
The test system of a further test is VSV-G. Put plainly: microbe, parasite or virus in culture. It counts as cell-based. The following applies: Human immunodeficiency virus 1.
The target in test [9] is HIV-1 reverse transcriptase (RT) (Human immunodeficiency virus type 1 group M subtype B, UniProt P12497). Description: HIV-1 reverse transcriptase.
In the next test the test system is HIV-1 Env pseudoviruses. It counts as cell-based. The following applies: TZM-bl, HIV-1HXB2.
Setting [10] is: Human immunodeficiency virus 1, MT2, MT-2, HIV-1IIIB.

Regarding `Cc1nc(C(NC(=O)c2ccc(-c3ccc(Cl)cc3)[nH]2)C2CCCCN2)sc1CO` (mixture of isomers) [NBD-11021, 5-(4-Chlorophenyl)-N-((5-(hydroxymethyl)-4-methylthiazol-2-yl)-(piperidin-2-yl)methyl)-1H-pyrrole-2-carboxamide], the “inhibition of CCR5-tropic cell-cell transmission (in words)” value with HIV-1ADA is reported as “showed inhibition”. Moreover, the IC50 – broadly, the point on the concentration scale where inhibition reaches its midpoint – stood at 3700 ± 400 nM in test [1]; 9800 nM in [3]; 1500 ± 60 nM in test [4] (setting [10]); 7300 ± 600 nM in test [4] (Human immunodeficiency virus 1, MT2, laboratory strain RF, subtype B, MT-2, R5X4); 2400 ± 100 nM in test [5]; 7500 ± 200 nM in the test with A-MLV. Besides, the 50% inhibitory concentration (IC50) is 1700 ± 200 nM in test [8] (Pseudovirus, U87/CD4/CCR5, U87-CD4-CCR5, HIV-1ADA); 1700 to 2400 nM in [8] (U87/CD4/CCR5, read-out: IC50 against CCR5- and CXCR4-tropic HIV-1); 10000 ± 500 nM in the test with VSV-G. For the same compound, in the test on HIV-1IIIB, the “inhibition of CXCR4-tropic cell-cell transmission (in words)” value is on record as “inhibited cell–cell transmission effectively”. Moreover, in the test with SIVmac186, the “activity against SIVmac186 (in words)” value is “poor activity”. Moreover, the “competition with sCD4 for binding to gp120 (in words)” value in the test with YU2 core gp120 [2] was “competes with CD4 to bind to gp120 in a dose-dependent manner”. In addition, in the test on HIV-2 isolates, the “activity against HIV-2 isolates (in words)” value is reported as “poor activity”. Further, in the test on YU2 core gp120 [6], the “competition with VRC-PG04 for binding to gp120 (in words)” value is “effectively competed with VRC-PG04”. The “enhancement of mAb 17b binding to YU2 core gp120 (in words)” value in the test on YU2 core gp120 [7] was “no enhancement”. Also, in the test on SHIVSF162P3, the “activity against SHIVSF162P3 (in words)” value was “poor activity”.
On to `Cc1cn([C@H]2C[C@H](N=[N+]=[N-])[C@@H](CO[P@](=O)(O)O[P@](=O)(O)OP(=O)(O)O)O2)c(=O)[nH]c1=O` [AZT-TP], for which, in test [9], the half-maximal inhibitory concentration (IC50) was 8 nM.
`COc1ccnc2[nH]cc(C(=O)C(=O)N3CCN(C(=O)c4ccccc4)C[C@H]3C)c12` [BMS-378806]: the IC50 in [3] (MAGI-CCR5 and HL 2/3 cells) is 14 nM.
`Cc1nc(C(NC(=O)c2ccc(-c3ccc(Cl)cc3)[nH]2)C2CCCCN2)sc1CO` (centres unmarked) [NBD-11021A, 5-(4-Chlorophenyl)-N-((5-(hydroxymethyl)-4-methylthiazol-2-yl)-(piperidin-2-yl)methyl)-1H-pyrrole-2-carboxamide]: the IC50 in test [4] (MT-2, HIV-1IIIB) is 1300 ± 200 nM; in [5], 3000 ± 400 nM.
As for `Cc1nc(C(NC(=O)c2ccc(-c3ccc(Cl)cc3)[nH]2)C2CCCCN2)sc1CO` (centres unmarked) [NBD-11021B, 5-(4-Chlorophenyl)-N-((5-(hydroxymethyl)-4-methylthiazol-2-yl)-(piperidin-2-yl)methyl)-1H-pyrrole-2-carboxamide], the IC50 was determined as 1800 ± 50 nM in test [4] (setting [10]) and 2400 ± 100 nM in the test with HIV-1 Env pseudoviruses.
